Experimental data from paper PMC12392461, “Beyond Estrogenicity: A Comparative Assessment of Bisphenol A and Its Alternatives in In Vitro Assays Questions Safety of Replacements” (Environmental Science & Technology, 2025).
Read-outs that look alike come from different tables or passages of the source.

What was measured:
[1] = system: SH-SY5Y cells; details: for IC10, SH-S5Y5, NOI: cytotoxicity, NOI assay cells
Procedure: Cell culture conditions and bioassay protocols including response detection are provided in Text S2.1–2.4 and Table S3. − Cell viability was determined from cell confluency using an IncuCyte S3 Live-Cell Analysis System (Sartorius AG, Essen, Germany) before and after exposure, except for SH-SY5Y cells (live–dead staining with Nuclear Green LcS1 and propidium iodide, Abcam, UK). For metabolic activation experiments, cell viability was assessed using the ToxBLAzer DualScreen Kit (Thermo Fisher Scientific) to capture the remaining toxicity in ERα-UAS-bla GripTite after treatment with the aCYP catalyst (details in Text S2.4). […]
(§1) We measured the cytotoxicity of BPA and its alternatives in HEK293H (PPARγ), HEK293T (ERα), H4IIe (AhR CALUX), MCF7 (ARE/MMP), and differentiated SH-SY5Y cells (Table S6). […]
medium, supplemented with 2% B-27 Supplement and 2 mM GlutaMAX Supplement. SH - SY5Y cells were differentiated with 10 µM all-trans retinoic acid prior to the assay.
(§2) S2.2: Cell Seeding and Incubation. For all bioassays, cell suspensions in the respective assay medium were dispensed into each well of 384-well plates using a MultiFlo Dispenser (Biotek, (now Agilent), Winooski, VT, U.S.). After seeding, the plates were incubated at 37° C and 5% […]
(§3) NYC, U.S.) for AhR: 3250 cells/well. Black Collagen I coated plates were used (Product No.
(§4) S2.3: Chemical Dosing and Assay Analysis Procedures. The dosing procedure and high-throughput assay workflow have been described in detail before. 9 The dosing concentrations […]
(§5) Stock solutions were then either added directly to the respective cell culture medium or evaporated under nitrogen, followed by replenishment with fresh medium. The final solvent content in each well was kept below 1% for methanol, 0% for acetonitrile.
(§6) Dosing plates were prepared as 11 -step serial dilutions using a Hamilton Microlab Star robotic system (Hamilton, Bonaduz, Switzerland), and chemicals were dosed in duplicates by transferring 10 μL twice from the dosing plates to the cell plates . After quantifying cell confluency as described in S2. 4., the exposed cells were incubated at 37° C and 5% CO₂ for an additional 24 h. All chemicals were tested in all assays with at least three independent […]
(§7) S2.4: Cell Viability Measurement s and bioanalytical protocols . The confluency as a measure of cell viability was determined with an IncuCyte S3 Live -Cell Analysis System (Sartorius AG, Essen, Germany). With this method the confluency of cells in a microscopy image are normalized to control wells without cells and compared before and after 24 hours of exposure.
This method has been described previously 13. Cell viability of SH-SY5Y cells was measured […]
propidium iodide (PI, Abcam, Cambridge, U.K.).14 Nuclear Green LCS1 is a membrane-permeable dye that stains the nuclei of all cells, whereas PI only enters cells with compromised membrane integrity (non-viable cells). After staining, live cells show green nuclei without red fluorescence, while dead cells display both green and red nuclear fluorescence due to PI […]
intercalation. […]

[2] = system: MCF7 (ARE/MMP); details: for IC10, MCF7, ARE: MCF7, ARE readout; for IC10, MCF7, MMP: MCF7, MMP readout
Procedure: (§8) Cell culture conditions and bioassay protocols including response detection are provided in Text S2.1–2.4 and Table S3. − Cell viability was determined from cell confluency using an IncuCyte S3 Live-Cell Analysis System (Sartorius AG, Essen, Germany) before and after exposure, except for SH-SY5Y cells (live–dead staining with Nuclear Green LcS1 and propidium iodide, Abcam, UK). For metabolic activation experiments, cell viability was assessed using the ToxBLAzer DualScreen Kit (Thermo Fisher Scientific) to capture the remaining toxicity in ERα-UAS-bla GripTite after treatment with the aCYP catalyst (details in Text S2.4).
(§9) For ARE, the concentration that triggered an induction ratio of 1.5 (ECIR1.5) was used as the benchmark value, as detailed in Text S2.5. IC10 values also served as a threshold for data analysis in all assays; only concentrations below IC10 were considered when deriving EC10 or ECIR1.5.
as §1
as §2, with “5% CO₂ for […]. The final cell densities and plate types were as follows: Black poly-D-lysine” for “5%”
(§10) 6500 cells/well, ERα: 5000 cells/well. White 384-well plates with a clear bottom (Product No.
as §3, §4, §5, §6, §7
(§11) This method has been described previously 13. […]

[3] = system: HEK293H (PPARγ); details: for IC10, linear: linear model; for IC10, HEK293, PPARγ: cytotoxicity, HEK293 (PPARγ assay cells)
Procedure: as §8, §9, §1
as §2, with “5% CO₂ for […]. The final cell densities and plate types were as follows: Black poly-D-lysine” for “5%”
as §10, §3, §4, §5, §6, §7, §11

[4] = system: HEK293T (ERα); details: for IC10, HEK293, ERα: HEK293 (ERα assay cells)
Procedure: as §8, §9, §1
as §2, with “5% CO₂ for […]. The final cell densities and plate types were as follows: Black poly-D-lysine” for “5%”
as §10, §3, §4, §5, §6, §7, §11

[5] = system: H4IIe (AhR CALUX); details: for IC10, H4IIe, AhR: H4IIe (AhR assay cells)
Procedure: as §8, §9, §1
as §2, with “5% CO₂ for […]. The final cell densities and plate types were as follows: Black poly-D-lysine” for “5%”
as §10, §3, §4, §5, §6, §7, §11

[6] = NOI bioassay cytotoxicity, dosing range all, linear model
[7] = NOI bioassay cytotoxicity, dosing range all, log-logistic model
[8] = Bioassay ARE, cytotoxicity, dosing range all, linear model fit
[9] = Bioassay ARE, cytotoxicity, dosing range all, log-logistic model fit
[10] = MMP bioassay cytotoxicity, dosing range all, linear model
[11] = MMP bioassay cytotoxicity, dosing range all, log-logistic model
[12] = PPARγ bioassay cytotoxicity, dosing range all
[13] = PPARγ bioassay cytotoxicity, dosing range all, log-logistic model
[14] = Bioassay AhR, cytotoxicity, dosing range all
[15] = Bioassay AhR, cytotoxicity, dosing range all, linear model fit
[16] = Bioassay AhR, cytotoxicity, dosing range all, log-logistic model fit
[17] = NOI bioassay cytotoxicity, dosing range all
[18] = Bioassay ARE, cytotoxicity, dosing range all
[19] = MMP bioassay cytotoxicity, dosing range all
[20] = Bioassay ERα, cytotoxicity, dosing range high
[21] = Bioassay ERα, cytotoxicity, dosing range high, linear model fit
[22] = Bioassay ERα, cytotoxicity, dosing range high, log-logistic model fit

Row | SMILES | IC10, linear [1, 6] | logIC10 [1, 7] | IC10, linear [2, 8] | logIC10 [2, 9] | IC10, linear [2, 10] | logIC10 [2, 11] | IC10, linear transformed [3, 12] | IC10, linear [3, 12] | logIC10 [3, 13] | IC10, linear [5, 15] | logIC10 [5, 16] | IC10, H4IIe, AhR ([5]; cytotoxicity) [µM] | logIC10 ([3]; human, 24 h) | logIC10 ([4]; human, 24 h) | logIC10 ([5]; rat, 24 h) | IC10, linear transformed [1, 17] | IC10, SH-S5Y5, NOI [1] [µM] | IC10, linear transformed [2, 18] | IC10, linear transformed [2, 19] | IC10, MCF7, ARE ([2]; cytotoxicity) [µM] | also measured
1 | CC1(C)C(O)C(C)(C)C1O (racemic) [r-TMCD, 2,2,4,4-Tetramethyl-1,3-cyclobutanediol (racemate)] | no cytotoxicity | no cytotoxicity | no cytotoxicity | no cytotoxicity | no cytotoxicity | no cytotoxicity | 6.71E-03 | no cytotoxicity | no cytotoxicity | 8.29E-03 | -2.04 | 8290 | – | – | – | – | – | – | – | – | IC10, linear ([4]; ERα bioassay cytotoxicity, dosing range all, linear model): no cytotoxicity; logIC10 ([4]; ERα bioassay cytotoxicity, dosing range all, log-logistic model): no cytotoxicity; IC10, linear transformed [5, 14]: 9.14E-03; Toxic ratio (TR) TRAhR ([5]; against baseline cytotoxicity): 0.12
2 | O=S(=O)(c1ccc(O)cc1)c1ccccc1O [2,4-BPS, 2,4'-Dihydroxydiphenyl sulfone] | – | – | – | – | – | – | – | – | – | – | – | – | -3.73 | -3.36 | -3.52 | – | – | – | – | – | Toxic ratio (TR) TRNOI ([1]; human, 24 h): 1.29; logIC10 ([1]; human, 24 h): -3.31; Toxic ratio (TR) TRARE ([2]; human, 24 h): 0.77; Toxic ratio (TR) TRMMP ([2]; human, 24 h): 0.77; logIC10 ([2]; human, 24 h): -3.05; Toxic ratio (TR) TRPPARγ ([3]; human, 24 h): 2.23; Toxic ratio (TR) TRERα ([4]; human, 24 h): 1.27; Toxic ratio (TR) TRAhR ([5]; rat, 24 h): 3.11
3 | CC(C)(c1ccc(OCC2CO2)cc1)c1ccc(OCC2CO2)cc1 (stereo not shown) [BADGE, Bisphenol A diglycidyl ether] | 5.39E-05 | -4.24 | 3.62E-05 | -4.41 | 8.59E-05 | -4.10 | 1.49E-05 | no cytotoxicity | -4.62 | no cytotoxicity | no cytotoxicity | – | – | – | – | 5.73E-05 | 57.3 | 3.85E-05 | 7.87E-05 | 38.5 | Toxic ratio (TR) TRNOI ([1]; against baseline cytotoxicity): 0.32; Toxic ratio (TR) TRARE ([2]; against baseline cytotoxicity, ARE readout): 0.61; Toxic ratio (TR) TRMMP ([2]; against baseline cytotoxicity, MMP readout): 0.30; IC10, MCF7, MMP ([2]; cytotoxicity): 78.7 µM; Toxic ratio (TR) TRPPARγ ([3]; against baseline cytotoxicity): 0.42; IC10, HEK293, PPARγ [3]: 24 µM; IC10, linear transformed ([4]; Bioassay ERα, cytotoxicity, dosing range all): 1.08E-05; IC10, linear ([4]; Bioassay ERα, cytotoxicity, dosing range all, linear model fit): no cytotoxicity; logIC10 ([4]; Bioassay ERα, cytotoxicity, dosing range all, log-logistic model fit): -4.73; Toxic ratio (TR) TRERα ([4]; against baseline cytotoxicity): 0.54; IC10, HEK293, ERα ([4]; cytotoxicity): 18.8 µM
4 | CC(C)CC(C)(c1ccc(O)cc1)c1ccc(O)cc1 [BP-MIBK, 4,4'-(1,3-Dimethylbutylidene)diphenol] | – | – | – | – | – | – | – | – | – | – | – | – | -5.09 | -5.04 | -4.05 | – | – | – | – | – | IC10, linear [1]: no cytotoxicity; logIC10 ([1]; human, 24 h): -4.10; IC10, linear [2]: no cytotoxicity; IC10, linear [4]: no cytotoxicity; logIC10 [4]: no cytotoxicity; IC10, linear [5]: no cytotoxicity
5 | CC(C)(c1ccc(O)cc1)c1ccc(O)cc1 [BPA, 4,4'-(Propane-2,2-diyl)diphenol, reference compound] | no cytotoxicity | -3.62 | – | – | – | – | – | – | – | – | – | – | -4.45 | -4.33 | -3.77 | 2.37E-04 | 237 | – | – | – | Toxic ratio (TR) TRNOI ([1]; against baseline cytotoxicity): 0.0846; Toxic ratio (TR) TRARE ([2]; human, 24 h): 0.37; Toxic ratio (TR) TRMMP ([2]; human, 24 h): 0.31; Toxic ratio (TR) TRPPARγ ([3]; human, 24 h): 0.38; IC10, linear [4]: no cytotoxicity; logIC10 [4]: no cytotoxicity; Toxic ratio (TR) TRERα ([4]; human, 24 h): 0.28; IC10, linear [5]: no cytotoxicity
6 | Oc1ccc(C(c2ccc(O)cc2)(C(F)(F)F)C(F)(F)F)cc1 [BPAF, 4,4'-(1,1,1,3,3,3-Hexafluoropropane-2,2-diyl)diphenol] | 7.35E-05 | -4.18 | 1.82E-05 | -4.73 | 2.87E-05 | -4.57 | 4.34E-06 | 1.10E-05 | -5.04 | 3.11E-05 | -4.40 | 31.1 | – | – | – | 6.64E-05 | 66.4 | 1.84E-05 | 2.72E-05 | 18.4 | IC10, MCF7, MMP ([2]; cytotoxicity): 27.2 µM; IC10, HEK293, PPARγ [3]: 9.12 µM; IC10, linear transformed [4, 20]: 5.56E-06; IC10, linear [4, 21]: no cytotoxicity; logIC10 [4, 22]: -5.02; IC10, linear ([4]; Bioassay ERα, cytotoxicity, dosing range low, linear model fit): no cytotoxicity; logIC10 ([4]; Bioassay ERα, cytotoxicity, dosing range low, log-logistic model fit): no cytotoxicity; IC10, HEK293, ERα ([4]; cytotoxicity): 9.47 µM; IC10, linear transformed [5, 14]: 3.99E-05
7 | O=S(=O)(c1ccc(O)cc1)c1ccc(O)cc1 [BPS, 4,4'-Sulfonyldiphenol] | 1.85E-04 | -3.71 | 1.31E-03 | -2.86 | 1.44E-03 | -2.92 | 3.12E-05 | 6.15E-04 | -3.22 | – | – | – | – | – | – | – | 195 | 1.39E-03 | 1.22E-03 | 1390 | IC10, MCF7, MMP ([2]; cytotoxicity): 1220 µM; IC10, HEK293, PPARγ [3]: 603 µM; IC10, linear transformed [4, 20]: 1.03E-04; IC10, linear [4, 21]: 5.20E-04; logIC10 [4, 22]: -3.33; IC10, linear transformed ([4]; ERα bioassay cytotoxicity, dosing range low): 5.72E-05; IC10, linear ([4]; ERα bioassay cytotoxicity, dosing range low, linear model): no cytotoxicity; logIC10 ([4]; ERα bioassay cytotoxicity, dosing range low, log-logistic model): no cytotoxicity; IC10, HEK293, ERα ([4]; cytotoxicity): 520 µM
8 | CC(C)(c1cc(Br)c(O)c(Br)c1)c1cc(Br)c(O)c(Br)c1 [TBBPA, 3,3',5,5'-Tetrabromobisphenol A] | no cytotoxicity | no cytotoxicity | – | – | – | – | – | – | – | – | – | – | – | -4.81 | -3.80 | – | – | – | – | – | IC10, linear [4]: no cytotoxicity
9 | CC1(C)[C@H](O)C(C)(C)[C@H]1O [t-TMCD, trans-2,2,4,4-Tetramethyl-1,3-cyclobutanediol] | – | – | – | – | – | – | – | – | – | – | – | 8940 | – | – | – | – | – | – | – | – | Toxic ratio (TR) TRAhR ([5]; against baseline cytotoxicity): 0.11
